Laboratory results published in ChEMBL document CHEMBL5465560, “Selectivity Literature for EUbOPEN Chemogenomic Library” (2024).

Assays:
[1] = target: Mitogen-activated protein kinase 9 (Homo sapiens, UniProt P45984); test: Selectivity interaction (KinomeScan (DiscoverX)) EUB0000229b MAPK9; conditions: at 10 µM
[2] = target: Myosin light chain kinase, smooth muscle (Homo sapiens, UniProt Q15746); test: Selectivity interaction (KinomeScan (DiscoverX)) EUB0000229b MYLK; conditions: at 10 µM
[3] = target: Cyclin-dependent kinase 2 (Homo sapiens, UniProt P24941); test: Selectivity interaction (Kinase panel (DSF assay)) EUB0001559a CDK2
[4] = target: Tyrosine-protein kinase SYK (Homo sapiens, UniProt P43405); test: Selectivity interaction (KinomeScan (DiscoverX)) EUB0000695a SYK; conditions: at 100 nM
[5] = target: Serine/threonine-protein kinase N1 (Homo sapiens, UniProt Q16512); test: Selectivity interaction (KinomeScan (DiscoverX)) EUB0001079a PKN1; conditions: at 1 µM
[6] = target: Serine/threonine-protein kinase PAK 6 (Homo sapiens) (UniProt Q9NQU5); test: Selectivity interaction (Kinase panel (Z-LYTE Assay)) EUB0001632a PAK6; conditions: at 10 µM
[7] = target: Protein arginine N-methyltransferase 5 (Homo sapiens, UniProt O14744); test: Selectivity interaction (Transferase panel (protein, RNA, and DNA methyltransferases. and EP300 (acetyltransferase))) EUB0000270b PRMT5
[8] = target: Bromodomain-containing protein 4 (Homo sapiens, UniProt O60885); conditions: at 10 µM
[9] = system: Tyrosine-protein kinase ABL1 (Homo sapiens), P00519 [M351T]; conditions: at 10 µM
[10] = target: Glycogen synthase kinase-3 alpha (Homo sapiens, UniProt P49840); test: Selectivity interaction (Upstate Kinase Profiler service (Millipore)) EUB0000056c GSK3A; conditions: at 1 µM
[11] = target: T1, Inhibitor of nuclear factor kappa-B kinase subunit epsilon (Homo sapiens) (UniProt Q14164); test: Selectivity interaction (ActivX KiNativ screen (ex vivo kinase selectivity in human PBMCs)) EUB0001619a IKBKE; format: cell-based; conditions: PBMC, at 1 µM
T1 sequence (whole entry): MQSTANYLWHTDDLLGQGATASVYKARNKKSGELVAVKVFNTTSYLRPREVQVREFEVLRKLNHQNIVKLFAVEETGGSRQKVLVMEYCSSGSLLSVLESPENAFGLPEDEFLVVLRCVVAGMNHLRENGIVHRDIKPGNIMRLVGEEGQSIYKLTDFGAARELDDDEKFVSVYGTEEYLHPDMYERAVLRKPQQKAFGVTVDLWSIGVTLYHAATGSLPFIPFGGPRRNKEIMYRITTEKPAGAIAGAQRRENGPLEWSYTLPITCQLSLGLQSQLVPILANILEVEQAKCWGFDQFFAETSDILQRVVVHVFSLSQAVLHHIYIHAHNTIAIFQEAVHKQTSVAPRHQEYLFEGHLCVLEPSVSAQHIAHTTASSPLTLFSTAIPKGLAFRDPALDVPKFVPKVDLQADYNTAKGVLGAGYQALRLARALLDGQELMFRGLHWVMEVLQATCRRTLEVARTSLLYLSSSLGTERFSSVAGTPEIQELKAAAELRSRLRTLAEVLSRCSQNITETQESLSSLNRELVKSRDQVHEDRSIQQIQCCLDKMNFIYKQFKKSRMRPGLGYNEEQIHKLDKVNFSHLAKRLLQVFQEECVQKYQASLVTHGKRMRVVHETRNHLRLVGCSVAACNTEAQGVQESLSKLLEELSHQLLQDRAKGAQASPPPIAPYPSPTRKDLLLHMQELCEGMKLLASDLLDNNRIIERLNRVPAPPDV

[12] = target: Phosphatidylinositol 4,5-bisphosphate 3-kinase catalytic subunit beta isoform (Homo sapiens) (UniProt P42338); test: Selectivity interaction (Kinase panel (literature)) EUB0001199aCl PIK3CB; conditions: at 1 µM
[13] = target: BMP-2-inducible protein kinase (Homo sapiens) (UniProt Q9NSY1); test: Selectivity interaction (KinomeScan (DiscoverX)) EUB0000607a BMP2K; conditions: at 10 µM
[14] = target: MAP/microtubule affinity-regulating kinase 3 (Homo sapiens) (UniProt P27448); test: Selectivity interaction (KinomeScan (DiscoverX)) EUB0000618a MARK3; conditions: at 10 µM
[15] = target: Dual specificity protein kinase CLK4 (Homo sapiens, UniProt Q9HAZ1); test: Selectivity interaction (KinomeScan (DiscoverX)) EUB0000655a CLK4; conditions: at 10 µM
[16] = target: Serine/threonine-protein kinase MARK1 (Homo sapiens) (UniProt Q9P0L2); conditions: at 10 µM
[17] = target: T2, Phosphorylase b kinase gamma catalytic chain, liver/testis isoform (Homo sapiens) (UniProt P15735); test: Selectivity interaction (KinomeScan (DiscoverX)) EUB0000092b PHKG2; conditions: at 10 µM
T2 sequence (whole entry): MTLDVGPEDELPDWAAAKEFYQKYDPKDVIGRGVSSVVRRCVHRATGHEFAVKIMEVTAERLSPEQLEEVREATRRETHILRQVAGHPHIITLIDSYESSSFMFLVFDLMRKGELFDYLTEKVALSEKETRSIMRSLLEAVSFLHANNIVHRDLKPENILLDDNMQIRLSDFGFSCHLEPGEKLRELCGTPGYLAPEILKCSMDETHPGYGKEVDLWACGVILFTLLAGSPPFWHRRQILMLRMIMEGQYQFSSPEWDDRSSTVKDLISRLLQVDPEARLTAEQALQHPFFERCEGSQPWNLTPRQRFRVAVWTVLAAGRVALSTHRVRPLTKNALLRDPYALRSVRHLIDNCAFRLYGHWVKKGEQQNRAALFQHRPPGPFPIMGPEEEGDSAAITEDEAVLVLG

[18] = target: Receptor-type tyrosine-protein kinase FLT3 (Homo sapiens) (UniProt P36888); test: Selectivity interaction (Ambit KINOMEscan and KiNATiv profiling in Jurkat cells) EUB0000090b FLT3; format: cell-based; conditions: at 1 µM
[19] = target: RAC-gamma serine/threonine-protein kinase (Homo sapiens, UniProt Q9Y243); test: Selectivity interaction (Ambit KINOMEscan and KiNATiv profiling in Jurkat cells) EUB0000090b AKT3; format: cell-based; conditions: at 1 µM
[20] = target: STE20/SPS1-related proline-alanine-rich protein kinase (Homo sapiens) (UniProt Q9UEW8); test: Selectivity interaction (Ambit KINOMEscan and KiNATiv profiling in Jurkat cells) EUB0000090b STK39; format: cell-based; conditions: at 1 µM

Protein arginine N-methyltransferase 5, sequence (O14744 whole entry): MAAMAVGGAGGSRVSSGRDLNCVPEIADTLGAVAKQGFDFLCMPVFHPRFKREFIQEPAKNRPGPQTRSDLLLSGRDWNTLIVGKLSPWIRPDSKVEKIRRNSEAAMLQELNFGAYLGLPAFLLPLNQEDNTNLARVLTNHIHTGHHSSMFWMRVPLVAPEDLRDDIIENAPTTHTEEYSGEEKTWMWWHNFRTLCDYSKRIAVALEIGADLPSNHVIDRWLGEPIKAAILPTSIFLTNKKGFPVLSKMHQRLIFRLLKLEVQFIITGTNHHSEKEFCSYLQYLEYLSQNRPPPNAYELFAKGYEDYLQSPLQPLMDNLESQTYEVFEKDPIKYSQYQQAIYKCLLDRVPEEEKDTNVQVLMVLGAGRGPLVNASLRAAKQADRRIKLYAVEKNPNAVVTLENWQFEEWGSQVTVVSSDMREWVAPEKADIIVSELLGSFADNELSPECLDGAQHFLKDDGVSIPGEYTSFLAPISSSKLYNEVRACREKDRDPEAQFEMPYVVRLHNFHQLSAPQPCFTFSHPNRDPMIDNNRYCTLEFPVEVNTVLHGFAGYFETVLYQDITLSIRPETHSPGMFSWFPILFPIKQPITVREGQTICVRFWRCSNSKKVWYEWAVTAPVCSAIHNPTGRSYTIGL
Dual specificity protein kinase CLK4, sequence (Q9HAZ1 whole entry, looked up): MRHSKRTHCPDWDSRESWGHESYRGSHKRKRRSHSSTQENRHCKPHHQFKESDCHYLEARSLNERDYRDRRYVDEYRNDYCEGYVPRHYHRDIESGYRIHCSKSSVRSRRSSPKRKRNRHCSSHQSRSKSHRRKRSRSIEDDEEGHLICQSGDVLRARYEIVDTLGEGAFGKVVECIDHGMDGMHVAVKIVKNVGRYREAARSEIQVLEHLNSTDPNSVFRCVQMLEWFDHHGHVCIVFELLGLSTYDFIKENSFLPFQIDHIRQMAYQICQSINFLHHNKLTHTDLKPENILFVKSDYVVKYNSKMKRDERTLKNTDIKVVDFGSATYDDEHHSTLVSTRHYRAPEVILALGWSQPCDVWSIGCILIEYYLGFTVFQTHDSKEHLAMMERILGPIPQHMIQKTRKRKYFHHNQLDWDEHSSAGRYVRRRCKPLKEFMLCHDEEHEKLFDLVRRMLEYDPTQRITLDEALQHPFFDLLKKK
Serine/threonine-protein kinase PAK 6 (Homo sapiens), sequence (Q9NQU5 whole entry, looked up): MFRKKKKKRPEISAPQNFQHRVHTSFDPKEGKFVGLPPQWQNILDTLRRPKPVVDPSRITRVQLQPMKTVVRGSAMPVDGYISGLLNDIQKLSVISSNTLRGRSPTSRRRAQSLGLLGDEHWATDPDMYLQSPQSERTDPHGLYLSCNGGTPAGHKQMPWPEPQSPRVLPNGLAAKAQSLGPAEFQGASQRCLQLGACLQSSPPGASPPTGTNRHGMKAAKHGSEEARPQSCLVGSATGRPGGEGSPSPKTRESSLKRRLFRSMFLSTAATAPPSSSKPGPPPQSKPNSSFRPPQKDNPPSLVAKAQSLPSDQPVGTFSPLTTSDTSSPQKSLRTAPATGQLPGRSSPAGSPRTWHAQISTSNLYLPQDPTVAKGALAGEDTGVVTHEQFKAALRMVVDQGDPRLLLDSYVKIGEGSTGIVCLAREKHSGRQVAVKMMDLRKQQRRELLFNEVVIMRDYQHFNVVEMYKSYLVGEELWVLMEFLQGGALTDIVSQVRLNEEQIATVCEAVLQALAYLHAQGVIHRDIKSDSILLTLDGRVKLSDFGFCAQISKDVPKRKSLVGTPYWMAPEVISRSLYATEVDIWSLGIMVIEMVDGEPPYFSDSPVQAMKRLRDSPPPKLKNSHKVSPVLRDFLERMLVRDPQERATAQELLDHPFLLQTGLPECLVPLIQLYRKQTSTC
Serine/threonine-protein kinase N1, sequence (Q16512 2-942 limits assumed): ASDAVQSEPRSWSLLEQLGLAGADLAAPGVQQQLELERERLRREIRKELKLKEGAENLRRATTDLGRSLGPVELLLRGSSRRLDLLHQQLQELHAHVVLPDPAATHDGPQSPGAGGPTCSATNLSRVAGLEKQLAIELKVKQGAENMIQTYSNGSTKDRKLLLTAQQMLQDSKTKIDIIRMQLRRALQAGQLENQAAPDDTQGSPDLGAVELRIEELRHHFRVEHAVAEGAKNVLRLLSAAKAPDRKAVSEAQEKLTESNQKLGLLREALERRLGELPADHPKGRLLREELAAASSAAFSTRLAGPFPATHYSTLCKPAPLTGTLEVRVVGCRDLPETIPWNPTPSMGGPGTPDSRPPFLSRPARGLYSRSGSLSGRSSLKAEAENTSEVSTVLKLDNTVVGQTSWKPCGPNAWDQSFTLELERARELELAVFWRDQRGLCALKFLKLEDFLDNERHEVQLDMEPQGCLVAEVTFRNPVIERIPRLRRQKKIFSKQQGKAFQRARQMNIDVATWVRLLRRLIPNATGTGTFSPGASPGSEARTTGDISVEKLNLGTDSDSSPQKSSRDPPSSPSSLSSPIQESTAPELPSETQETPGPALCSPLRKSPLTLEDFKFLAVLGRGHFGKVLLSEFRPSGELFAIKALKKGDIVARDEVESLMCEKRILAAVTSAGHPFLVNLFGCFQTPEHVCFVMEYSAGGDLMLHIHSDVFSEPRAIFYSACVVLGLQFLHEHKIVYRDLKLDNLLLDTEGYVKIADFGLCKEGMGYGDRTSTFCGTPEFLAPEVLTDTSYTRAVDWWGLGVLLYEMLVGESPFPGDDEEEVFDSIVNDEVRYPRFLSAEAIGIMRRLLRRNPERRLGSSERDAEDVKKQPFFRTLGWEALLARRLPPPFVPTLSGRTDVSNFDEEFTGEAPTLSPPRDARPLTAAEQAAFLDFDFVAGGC
Phosphatidylinositol 4,5-bisphosphate 3-kinase catalytic subunit beta isoform (Homo sapiens), sequence (P42338 whole entry, looked up, canonical isoform): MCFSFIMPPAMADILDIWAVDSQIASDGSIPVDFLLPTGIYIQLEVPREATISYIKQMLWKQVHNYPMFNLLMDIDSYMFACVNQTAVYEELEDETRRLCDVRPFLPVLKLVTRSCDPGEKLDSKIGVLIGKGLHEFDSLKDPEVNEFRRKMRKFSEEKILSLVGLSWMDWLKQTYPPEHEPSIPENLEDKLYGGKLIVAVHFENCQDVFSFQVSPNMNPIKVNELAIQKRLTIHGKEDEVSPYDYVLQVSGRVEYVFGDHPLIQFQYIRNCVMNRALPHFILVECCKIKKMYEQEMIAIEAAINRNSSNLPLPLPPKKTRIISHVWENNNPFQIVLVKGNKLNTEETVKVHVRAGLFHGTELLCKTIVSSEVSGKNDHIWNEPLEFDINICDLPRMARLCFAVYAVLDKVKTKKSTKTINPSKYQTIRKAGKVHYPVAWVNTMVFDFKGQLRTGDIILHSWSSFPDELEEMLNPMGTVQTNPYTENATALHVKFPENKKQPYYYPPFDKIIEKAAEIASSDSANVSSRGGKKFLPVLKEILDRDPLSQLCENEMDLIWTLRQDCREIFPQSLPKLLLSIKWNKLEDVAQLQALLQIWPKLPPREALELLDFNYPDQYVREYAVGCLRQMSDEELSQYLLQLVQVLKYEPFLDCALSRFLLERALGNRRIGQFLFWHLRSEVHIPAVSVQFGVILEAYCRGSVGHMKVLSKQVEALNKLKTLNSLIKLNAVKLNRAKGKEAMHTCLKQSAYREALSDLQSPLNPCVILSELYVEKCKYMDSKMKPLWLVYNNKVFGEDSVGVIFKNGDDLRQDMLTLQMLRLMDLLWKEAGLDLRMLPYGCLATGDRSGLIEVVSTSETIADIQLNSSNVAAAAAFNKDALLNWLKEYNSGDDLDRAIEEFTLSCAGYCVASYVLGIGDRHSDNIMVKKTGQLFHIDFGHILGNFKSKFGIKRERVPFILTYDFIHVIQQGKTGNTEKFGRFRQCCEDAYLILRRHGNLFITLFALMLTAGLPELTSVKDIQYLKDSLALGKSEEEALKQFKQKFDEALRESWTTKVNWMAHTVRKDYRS
Serine/threonine-protein kinase MARK1 (Homo sapiens), sequence (Q9P0L2 whole entry, looked up, canonical isoform): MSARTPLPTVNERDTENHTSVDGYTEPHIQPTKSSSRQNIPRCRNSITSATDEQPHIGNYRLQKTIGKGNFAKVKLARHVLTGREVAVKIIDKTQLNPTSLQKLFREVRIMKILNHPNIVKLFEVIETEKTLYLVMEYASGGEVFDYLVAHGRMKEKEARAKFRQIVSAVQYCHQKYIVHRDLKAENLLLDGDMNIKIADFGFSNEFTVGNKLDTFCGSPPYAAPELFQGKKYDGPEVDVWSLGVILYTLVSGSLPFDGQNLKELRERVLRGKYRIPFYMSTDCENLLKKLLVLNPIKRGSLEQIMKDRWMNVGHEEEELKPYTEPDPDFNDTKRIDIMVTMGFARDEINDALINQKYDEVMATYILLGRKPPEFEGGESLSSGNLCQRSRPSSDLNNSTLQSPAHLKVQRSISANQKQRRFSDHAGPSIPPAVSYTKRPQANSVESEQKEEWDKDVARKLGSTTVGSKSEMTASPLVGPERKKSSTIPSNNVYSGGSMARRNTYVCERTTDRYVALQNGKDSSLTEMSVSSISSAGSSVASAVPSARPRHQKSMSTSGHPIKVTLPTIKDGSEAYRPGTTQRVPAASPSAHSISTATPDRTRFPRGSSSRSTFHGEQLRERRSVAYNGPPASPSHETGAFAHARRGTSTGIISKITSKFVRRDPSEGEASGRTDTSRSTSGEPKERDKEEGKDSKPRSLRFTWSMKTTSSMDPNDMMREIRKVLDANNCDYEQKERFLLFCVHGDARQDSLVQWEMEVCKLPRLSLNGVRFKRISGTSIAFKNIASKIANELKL
Mitogen-activated protein kinase 9, sequence (P45984 whole entry, looked up): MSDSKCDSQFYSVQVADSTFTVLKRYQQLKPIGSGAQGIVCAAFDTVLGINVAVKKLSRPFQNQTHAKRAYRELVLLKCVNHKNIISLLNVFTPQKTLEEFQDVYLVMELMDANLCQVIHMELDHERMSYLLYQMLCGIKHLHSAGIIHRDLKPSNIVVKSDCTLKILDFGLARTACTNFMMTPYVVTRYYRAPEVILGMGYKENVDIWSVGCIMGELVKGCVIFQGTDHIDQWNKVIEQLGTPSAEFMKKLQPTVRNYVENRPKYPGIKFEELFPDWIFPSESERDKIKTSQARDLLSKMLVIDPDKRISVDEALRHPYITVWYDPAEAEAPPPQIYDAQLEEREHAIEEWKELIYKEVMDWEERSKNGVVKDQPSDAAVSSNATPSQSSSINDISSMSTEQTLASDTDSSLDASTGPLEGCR

Q: COc1cc(N(C)c2ccnc3ccc(C(F)(F)F)cc23)cc(OC)c1OC was tested. Which % binding [1] did it give?
A: Its % binding is 80%.

Q: And the % binding [2]?
A: The % binding was 92%.

Q: CN(C(=O)c1cnn2cccnc12)c1cc2c(cc1N1CCOCC1)C(=O)N(C[C@@H](F)C(C)(C)O)C2 was tested. Which dTM [3] did it give?
A: The dTM was -0.3 K.

Q: How did the % of control [4] turn out when Cc1cc(F)c(C(=O)Nc2cccc(-c3nncn3C(C)C)n2)cc1-n1cnc(C2CC2)c1 was run?
A: The % of control was 76%.

Q: Which % of control [5] does the source give for Nc1cnc(N2CCc3cc(S(=O)(=O)Nc4c(F)cc(Cl)cc4F)cc(N4CCCC4=O)c32)nc1 [TP-020n] here?
A: Its % of control is 95%.

Q: For Cn1cc(-n2cnc3c(NCc4nc5cc(Cl)c(Cl)cc5[nH]4)nc(N4CCOCC4)nc32)cn1, which % of control [6] is on record?
A: Its % of control is -5.74%.

Q: How did the % activity ([7]; at 1 µM) turn out when Cc1cc(CN)cc(C)c1-c1ncn(C)c1-c1cncn1C was run?
A: Its % activity is over 90%.

Q: And the % activity ([7]; at 10 µM)?
A: Its % activity is over 80%.

Q: Cc1cc([C@@H](C)Nc2ccccc2C(=O)O)c2nc(N3CCOCC3)cc(=O)n2c1 [AZD-6482] was tested. Which % of control [8] did it give?
A: Its % of control is 82%.

Q: And the % of control [9]?
A: Its % of control is 94%.

Q: For Cc1ccc(-c2ccc3c(ccc4sc5c(c43)NC[C@@H](C)NC5=O)n2)cn1, which % of inhibition [10] is on record?
A: The % of inhibition was 2%.

Q: With N#Cc1cccc(-c2c[nH]c3ncnc(N4CCOCC4)c23)c1 as the compound, how does the % of inhibition [11] read?
A: The % of inhibition was 7%.

Q: With CN1Cc2nccc(-c3cn(C)nc3-c3ccc(F)cc3)c2C1=O as the compound, how does the % of inhibition [12] read?
A: The % of inhibition was 1%.

Q: CNC(=O)Nc1ccc(-c2nc(N3CC4CCC(C3)O4)c3cnn(C4CCC5(CC4)OCCO5)c3n2)cc1 was tested. Which % of control [13] did it give?
A: The % of control was 85%.

Q: Which % of control [14] does the source give for O[C@H]1CC[C@H](Nc2ncc3nc(Nc4c(F)cc(F)cc4F)n([C@H]4CCOC4)c3n2)CC1 here?
A: The % of control was 97%.

Q: With CN(C)CCOc1ccc(-c2nc(-c3ccncc3)c(-c3ccc4c(c3)CC/C4=N\O)[nH]2)cc1 as the compound, how does the % of control [15] read?
A: Its % of control is 68%.

Q: For CCN(CC)CCCCNc1ncc2cc(-c3cc(OC)cc(OC)c3)c(NC(=O)NC(C)(C)C)nc2n1, which % of control [16] is on record?
A: Its % of control is 100%.

Q: CCC(=O)N1CCN(c2ccc(-n3c(=O)ccc4cnc5ccc(-c6cnc7ccccc7c6)cc5c43)cc2C(F)(F)F)CC1 was tested. Which % of control [17] did it give?
A: Its % of control is 100%.

Q: Which % of control [18] does the source give for CN(C)C/C=C/C(=O)Nc1ccc(C(=O)N2CCCC(Nc3ncc(Cl)c(-c4c[nH]c5ccccc45)n3)C2)cc1 (stereo unspecified) here?
A: Its % of control is 95%.

Q: What about the % of control [19] of the same compound?
A: Its % of control is 96%.

Q: What about the % of control [20] of the same compound?
A: Its % of control is 95%.
